{"source": "patent US20170065593A1", "about": "“Combination” (Novartis AG, priority 2009, published 2017)", "key": {"95 cancer cell lines": {"test_system": "95 cancer cell lines", "description": "(Compound A) or mTOR inhibitor (mTORi, Rapamycin) alone or a combination of both agents at a ratio of 1:2 (MEKi:mTORi) and cell proliferation/death was measured after 3 day drug exposure. Briefly, cells were plated in 384-well plates at 500 cells/well in culture media appropriate for each cell type, supplemented with 10% FBS and 1% penicillin/streptomycin, and incubated overnight at 37° C., 5% CO2. […] (two fold dilutions ranging from 7.3 uM-0.014 nM) or with mTOR inhibitor (two fold dilutions ranging from 14.6 uM-0.112 nM) or in combination with both compounds and incubated for 72 hours. Cell growth was measured using the CellTiterGlo (CTG) reagent (Promega) according to the manufacturer's protocol. Data were analyzed using the XLfit (IDBS Ltd.) curve-fitting tool for Microsoft Excel. Growth IC50 (gIC50) and Ymin values were generated using a four-parameter curve fit algorithm (XLFit algorithm #205).\nResults were expressed as a percent of the t=0 and plotted against the compound concentration. The T=0 value is normalized to 100% and represents the number of cells at the time of compound addition. […] Formula below was used to calculate mutually exclusive combination index (CI). Data were reported as log CI, where the logarithm value of CI was calculated.\nCI=IC50 of a+b/IC50 of a+IC50 of b+a/IC50 of b\nSynergy is defined as CI<1, additivity as CI=1 and antagonism as CI>1. Considering the variability of these proliferation assays we arbitrarily defined log CI>0.1 as antagonism, between −0.1 and 0.1 as no significant effect and <−0.1 as synergy."}, "[1]": {"test_system": "A549 lung cancer cell line", "assay": "Assay 2: cell growth (CellTiterGlo, 72 hours), Ymin", "format": "cell-based", "conditions": "percent of T=0 (T=0 = 100%)", "description": "FIG. 5 depicts the effect of MEK inhibitor, mTOR inhibitor and their combination on A549 lung cancer cell line growth. […] Cells were treated with MEK inhibitor (two fold dilutions ranging from 7.3 uM-0.014 nM) or with mTOR inhibitor (two fold dilutions ranging from 14.6 uM-0.112 nM) or in combination with both compounds and incubated for 72 hours. Cell growth was measured using the CellTiterGlo (CTG) reagent (Promega) according to the manufacturer's protocol. Data were analyzed using the XLfit (IDBS Ltd.) curve-fitting tool for Microsoft Excel. Growth IC50 (gIC50) and Ymin values were generated using a four-parameter curve fit algorithm (XLFit algorithm #205). Results were expressed as a percent of the t=0 and plotted against the compound concentration. […] Formula below was used to calculate mutually exclusive combination index (CI). Data were reported as log CI, where the logarithm value of CI was calculated. […] Similar analysis was performed for all cell lines and Ymin results are depicted in FIG. 6."}}, "note": "Like-named read-outs stand apart in the source and are kept apart here.", "data": [{"smiles": "CO[C@H]1C[C@@H]2CC[C@@H](C)[C@@](O)(O2)C(=O)C(=O)N2CCCC[C@H]2C(=O)O[C@H]([C@H](C)C[C@@H]2CC[C@@H](O)[C@H](OC)C2)CC(=O)[C@H](C)/C=C(\\C)[C@@H](O)[C@@H](OC)C(=O)[C@H](C)C[C@H](C)/C=C/C=C/C=C/1C", "note": "[Rapamycin]", "values": [{"measurement": "% of cells with cytotoxic response", "setting": "95 cancer cell lines; KRAS WT / PI3K WT cell lines", "value": 10, "unit": "%"}, {"measurement": "% of cells with cytotoxic response", "setting": "95 cancer cell lines; KRAS WT / PI3K mutant cell lines", "value": 5, "unit": "%"}, {"measurement": "% of cells with cytotoxic response", "setting": "95 cancer cell lines; KRAS WT cell lines", "value": 10, "unit": "%"}, {"measurement": "% of cells with cytotoxic response", "setting": "95 cancer cell lines; KRAS mutant / PI3K WT cell lines", "value": 11, "unit": "%"}, {"measurement": "% of cells with cytotoxic response", "setting": "95 cancer cell lines; KRAS mutant / PI3K mutant cell lines", "value": 6, "unit": "%"}, {"measurement": "% of cells with cytotoxic response", "setting": "95 cancer cell lines; KRAS mutant cell lines", "value": 8, "unit": "%"}, {"measurement": "% of cells with cytotoxic response", "setting": "95 cancer cell lines; PI3K WT cell lines", "value": 8, "unit": "%"}, {"measurement": "% of cells with cytotoxic response", "setting": "95 cancer cell lines; PI3K mutant cell lines", "value": 12, "unit": "%"}, {"measurement": "percentage of cell undergoing death (cytotoxic)", "setting": "95 cancer cell lines; all cell lines, Ymin below T=0", "value": 9.5, "unit": "%"}, {"measurement": "cell lines undergoing death", "setting": "95 cancer cell lines; single agent, across KRAS and PI3K mutational subgroups", "value": "≤ 11", "unit": "%"}, {"measurement": "Ymin (lower Y value at any compound concentration)", "setting": "[1]", "value": 487, "unit": "%"}]}]}
